“Also recorded” adds a separate entry of the source.
Experiments:
[1] = Thermal cycling of remineralized dentin samples in artificial saliva, SEM; set-up: species or system human; details: 3 rounds remineralized, 2,500 cycles (90 days) between 5 C and 50 C
Description: To ensure the thermal durability of the newly formed mineral layer on the dentin surface, thermal cycling tests were conducted on remineralized samples. After three rounds of peptide-guided remineralization, the sample was placed in a vial containing an artificial saliva solution consisting of 130 mM KCl, 20 mM HEPES, 1.5 mM CaCl2, 0.9 mM KH2PO4, and 1 mM NaCl. In order to mimic the temperature changes in the natural oral environment, the remineralized sample was cycled between 5 C and 50 C, holding for 30 seconds at each temperature. SEM images were taken of the mineral layer after 200 cycles (6 days) and 2,500 cycles (90 days) to compare the effects of thermal cycling at different time periods.

[2] = Fluoride delivery to tooth surface, EDXS of mineral layer; details: tooth surface treated with shADP5, then ionic fluoride (1100 ppm) delivered with ionic PO4
Description: shADP5 enables the delivery of ionic fluoride delivery to the tooth surface. After the tooth surface was treated shADP5, ionic fluoride was delivered with ionic PO4.

[3] = Visual observation of diffusion and mineralization reaction of calcium and phosphate gels on glass slide; type: physicochemical; details: gel formulation, calcium and phosphate gel drops on glass slide
Excerpt: Active ingredients stored separately in their respective gel/varnish/toothpaste formulations is important in preventing premature mineralization reactions. In all formulations, the peptide is to be delivered first, then the ionic calcium/phosphate or ionic calcium/phosphate/fluoride are delivered second. Understanding the reaction time is useful to characterize the prescribed treatment time and procedure. To inform treatment protocol, an experiment was designed in which two drops of gels containing calcium and phosphate were mixed with peptide gel and placed next each other on a glass slide close enough that upon subsequent spreading of the two droplets, they would come to contact with each other at their respective edges. Mineralization reactions were monitored visually be observing parts of the gels turning from clear (unreacted) to white (reacted).
Then the inverses of both quantities were taken to enable the determination of the diffusion constant based on the following equation: 1/t=D (1/x), where t is time, x is the width of reacted mineral (appear as white in FIG. 18) and D is the diffusion constant in units of mm/min. Shown in FIG. 19 is an example of the derived diffusion constants.

Row | Sequence | mineral layer after thermal cycling [1] | fluoride in the mineral layer (EDXS) [2] | extent of mineralization reaction versus without peptide [3]
1 | SYEKSHSQAINTDRT [sADP5, shortened amelogenin derived peptide 5] | still present; also recorded: thermally stable | – | –
2 | SYENSHSQAINVDRT [shADP5] | – | incorporated | more extensive

Source: patent US11617711B2, “Compositions and methods for dental care” (UNIVERSITY OF WASHINGTON, priority 2018, dated 2023)
